Reference: US20250206723A1, “METHODS AND PROCESSES FOR THE PREPARATION OF MCT4 INHIBITORS” (Vettore, LLC, priority 2022, published 2025)
Where a name gives a salt, the structure may show the parent alone.

Legend:
[1] = Dog pharmacokinetics, oral powder in capsule; format: in vivo, beagle dogs; details: for AUCinf / AUClast: single 3 mg/kg, powder in capsule, mean, 3 mg/kg, in ng·h/mL
Method: Groups, Dosing, and Collection. The pharmacokinetics of the free acid and the tris salt of the compound of Formula I administered by oral capsules was assessed in dogs. Three male beagle dogs were administered a single dose of 3 mg/kg free acid on Day 1 of the study, and a single dose of 3 mg/kg tris salt on Day 8 of the study. Plasma was collected pre-dose, and at 0.5, 1, 2, 4, 8, 12 and 24 hours post-dose via puncture of peripheral veins.
(§1) LC MS-MS Analysis. Liquid Chromatography with tandem mass spectrometry was used to determine plasma concentrations of the compound of Formula I free acid and the tris salt in plasma samples collected at prescribed time points. Instrumentation included YMC-Triart C18, S-5 μm (50×2.1 mm) HPLC column, liquid chromatograph Shimadzu LC-30AD with communications bus module CBM-20A and Auto SIL-20AC HT; and a Triple Quad 5500 LC/MS/MS instrument. Tolbutamide was used as an internal standard.

[2] = Rat pharmacokinetics, oral gavage, plasma by LC-MS/MS; format: in vivo, Sprague-Dawley rats
[3] = Dog pharmacokinetics, oral gavage of suspension (0.5% methylcellulose in saline); format: in vivo; details: male beagle dogs; for AUC(0-inf) / AUC(0-t): dog, plasma, oral gavage suspension, mean
Method: In a follow-up study, the pharmacokinetics of tris salt of the compound of Formula I were investigated via oral gavage of a 0.5% methylcellulose in saline formulation. Two groups of animals were tested. In Group 1, three male beagle dogs were administered a single dose of 3 mg/kg tris salt. In Group 2, three male beagle dogs were administered a single dose of 30 mg/kg tris salt. Plasma was collected pre-dose, and at 0.5, 1, 2, 4, 8, 12 and 24 hours post-dose via puncture of peripheral veins.
as §1

[4] = target: MCT4 (Homo sapiens, UniProt O15427); details: affinity of MCT4 for lactate; cited from earlier work
Chain of MCT4 (O15427 whole entry): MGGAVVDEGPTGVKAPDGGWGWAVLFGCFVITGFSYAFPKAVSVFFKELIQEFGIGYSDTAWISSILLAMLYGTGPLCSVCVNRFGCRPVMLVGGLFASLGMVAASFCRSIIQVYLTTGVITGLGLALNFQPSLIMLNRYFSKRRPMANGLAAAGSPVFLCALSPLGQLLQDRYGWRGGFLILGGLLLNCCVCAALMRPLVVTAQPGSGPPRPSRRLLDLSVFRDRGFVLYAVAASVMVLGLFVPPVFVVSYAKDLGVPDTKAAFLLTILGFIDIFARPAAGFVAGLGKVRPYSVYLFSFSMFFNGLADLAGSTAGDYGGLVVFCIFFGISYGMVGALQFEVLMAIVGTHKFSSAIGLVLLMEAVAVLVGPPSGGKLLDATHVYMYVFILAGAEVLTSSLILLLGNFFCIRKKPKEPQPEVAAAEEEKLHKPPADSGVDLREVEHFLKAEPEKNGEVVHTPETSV

[5] = rat male, 20 mg/kg free acid, oral gavage, mean
[6] = male beagle dogs, listed as Salt

CC(C)(OCc1cc(-c2cccc(OC3CCC3)c2)n(-c2ccccc2N2CCC2)n1)C(=O)O [Free Acid, 2-([1-[2-(azetidin-1-yl)phenyl]-5-(3-cyclobutoxyphenyl)-1H-pyrazol-3-yl]methoxy)-2-methylpropanoic acid]
clinical symptoms ([1]; male beagle dogs, single 3 mg/kg oral capsule): No abnormal clinical symptoms | AUCinf ([1]; male beagle dogs): 1265 | AUClast ([1]; male beagle dogs): 1215 | AUC—% Extrap_obs ([2]; rat female, 20 mg/kg free acid, oral gavage, mean): 9.9% | AUC—% Extrap_obs ([2]; rat female, 60 mg/kg free acid, oral gavage, mean): 16.7% | AUC—% Extrap_obs ([2]; rat female, 200 mg/kg free acid, oral gavage, mean): 22.1% | AUClast/D [2, 5]: 8332 ng·h/mL | AUC—% Extrap_obs [2, 5]: 0.61% | AUC—% Extrap_obs ([2]; rat male, 60 mg/kg free acid, oral gavage, mean): 0.477% | AUC—% Extrap_obs ([2]; rat male, 200 mg/kg free acid, oral gavage, mean): 0.704% | clinical symptoms ([2]; rats, single oral gavage, all dose groups): No abnormal clinical symptoms

CC(C)(OCc1cc(-c2cccc(OC3CCC3)c2)n(-c2ccccc2N2CCC2)n1)C(=O)O [Tris Salt]
total drug exposure across time (AUClast and AUCInf) compared to the free acid ([1]; dogs, powder in capsule and suspension formulations): higher | AUCinf [1, 6]: 4092 | AUClast [1, 6]: 3924 | AUC(0-inf) ([3]; 3 mg/kg): 5200 ng·h/mL | AUC(0-t) ([3]; 3 mg/kg): 5080 ng·h/mL | AUC(0-inf) ([3]; 30 mg/kg): 56800 ng·h/mL | AUC(0-t) ([3]; 30 mg/kg): 41300 ng·h/mL | clinical symptoms ([3]; single 3 or 30 mg/kg oral gavage): No abnormal clinical symptoms | AUC—% Extrap_obs ([2]; rat female, 25 mg/kg tris salt, oral gavage, mean): 9% | AUC—% Extrap_obs ([2]; rat female, 75 mg/kg tris salt, oral gavage, mean): 18.5% | AUC—% Extrap_obs ([2]; rat female, 250 mg/kg tris salt, oral gavage, mean): 59.9% | AUC—% Extrap_obs ([2]; rat male, 25 mg/kg tris salt, oral gavage, mean): 1.28% | AUC—% Extrap_obs ([2]; rat male, 75 mg/kg tris salt, oral gavage, mean): 0.473% | AUC—% Extrap_obs ([2]; rat male, 250 mg/kg tris salt, oral gavage, mean): 26.5% | total drug exposure across time (AUClast and AUCInf) versus free acid groups ([2]; rats, male and female): higher | Maximum exposure levels (Cmax) versus free acid groups ([2]; rats, male and female, except females at 20/25 mg/kg): higher

CC(O)C(=O)O (stereo not shown) [lactate]
Km [4]: 28 mM
